In brackets after ≈: the same amount, converted by molar mass. Starred links: 1 amine or outer side, 2 acyl side, 3 side chain; linkers in the order of their positions; H or OH if unused. Positions of bridges follow the written chain, without caps; N, C: chain ends. Non-standard residues stand in square brackets, D forms with d. Residues, ends and D or L forms follow the SMILES beside them. Chains are numbered I, II in the order given. Actinocin(9to1) = Cc1c2oc3c(C)ccc(C(=O)[*:1])c3nc-2c(C(=O)[*:2])c(N)c1=O; NMeV = CN[C@H](C(=O)O)C(C)C; Orn = NCCC[C@H](N)C(=O)O; Sar = CNCC(=O)O

The values below come from patent publication US20050123917A1, “Method for characterising and/or identifying active mechanisms of antimicrobial test substances” (priority 2001, published 2005).

The test system of the first assay is Bacillus subtilis 168. In words: Determination of the minimum inhibiting agent concentration (MIC). The settings on record: B. subtilis 168, Belitsky Minimal Medium, 18-24 hrs at 37° C. The format is cell-based. On the procedure:
The test substance may be an inhibiting agent. The concentration of inhibiting agent with which the bacterial culture is treated should preferably be in the range of 0.1× to 20× the minimum inhibiting agent concentration (MIC) for the test substance. The minimum inhibiting agent concentration is the minimum concentration of an antibiotic which inhibits the growth of a test germ over a period of 18-24 hours. The inhibiting agent concentration can therefore be determined according to standard microbiological procedures (see for example The-National Committee for Clinical Laboratory Standards. Methods for dilution antimicrobial susceptibility tests for bacteria that grow aerobically; approved standard-fifth edition. NCCLS document M7-A5 [ISBN 1-56238-394-9]. NCCLS, 940 West Valley Road, Suite 1400, Wayne, Pa. 19087-1898 USA, 2000.). The test spectra are recorded from a microbial culture that has been treated with the inhibiting agent in one, or preferably in several concentrations.
For the production of an overnight culture, 22 ml of Belitsky Minimal Medium (Stuhlke et al. (1993) Temporal activation of beta-glucauase synthesis in Bacillus subtilis is mediated by the GTP pool. J. Gen. Microbiol. 1993 Sep; 139 (pt 9):2041-5) was injected with an aliquot of the test germ Bacillus subtilis 168 from a permanent culture stored at −80° C., and incubated at 37° C. and 200 rpm.
For orientation: MIC means the smallest concentration in the dilution series that meets the test's criterion for growth inhibition. In the case of `O=c1[nH]c(=O)n([C@H]2C[C@H](O)[C@@H](CO)O2)cc1F` [5-fluor-2-desoxyuridine], the MIC was 0.25 µg/mL (≈ 1.02 µM). Compound `N[C@@H]1CONC1=O` [D-cycloserine] displayed an MIC of 64 µg/mL (≈ 627 µM). Same read-out and setting: next, `Cc1c2oc3c(C)ccc(C(=O)N[C@@H]4C(=O)N[C@H](C(C)C)C(=O)N5CCC[C@H]5C(=O)N(C)CC(=O)N(C)[C@@H](C(C)C)C(=O)O[C@@H]4C)c3nc-2c(C(=O)N[C@@H]2C(=O)N[C@H](C(C)C)C(=O)N3CCC[C@H]3C(=O)N(C)CC(=O)N(C)[C@@H](C(C)C)C(=O)O[C@@H]2C)c(N)c1=O` [actinomycin D] (I: T[dV]P[Sar][NMeV] / II: T[dV]P[Sar][NMeV]; ester I:1-I:C, II:1-II:C; linker I:N-II:N via Actinocin(9to1)): 1 µg/mL (≈ 0.797 µM); `CC[n+]1c(-c2ccccc2)c2cc(N)ccc2c2ccc(N)cc21.[Br-]` [ethidiumbromid]: 4 µg/mL; `CC(C)C[C@@H]1NC(=O)[C@H](CCCN)NC(=O)[C@H](C(C)C)NC(=O)[C@@H]2CCCN2C(=O)[C@@H](Cc2ccccc2)NC(=O)[C@H](CC(C)C)NC(=O)[C@H](CCCN)NC(=O)[C@H](C(C)C)NC(=O)[C@@H]2CCCN2C(=O)[C@@H](Cc2ccccc2)NC1=O` [gramicidin S] (cyclo(V[Orn]L[dF]PV[Orn]L[dF]P)): 1 µg/mL (≈ 0.876 µM).

As for `CO[C@@]12[C@H](COC(N)=O)C3=C(C(=O)C(C)=C(N)C3=O)N1C[C@@H]1N[C@@H]12` [mitomycin C], the MIC worked out at 0.25 µg/mL (≈ 0.748 µM). Same read-out and setting: next, `CC1(C)S[C@@H]2[C@H](NC(=O)Cc3ccccc3)C(=O)N2[C@H]1C(=O)O` [penicillin G]: 4 µg/mL (≈ 12 µM); `CN(C)[C@@H]1C(=O)C(C(N)=O)=C(O)[C@@]2(O)C(=O)C3=C(O)c4c(O)cccc4[C@@](C)(O)[C@H]3C[C@@H]12` [tetracyclin]: 16 µg/mL (≈ 36 µM).

Compound enniatin came in with an MIC of 16 µg/mL. gentamicin yielded an MIC of 0.125 µg/mL. Same read-out and setting: as for gramicidin A, the figure is 4 µg/mL; as for mersacidin, 16 µg/mL.

In turn, neomycin yielded an MIC of 0.125 µg/mL. Consider polymyxin B-sulfate, for which the MIC stood at 16 µg/mL. Compound ramoplanin had an MIC of 1 µg/mL. As to ristocetin, the MIC is 0.5 µg/mL. Compound teichoplanin displayed an MIC of 0.125 µg/mL.

The same assay, now with this note: Bacillus subtilis, 168.
Compound `CN[C@H](CC(C)C)C(=O)N[C@H]1C(=O)N[C@@H](CC(N)=O)C(=O)N[C@H]2C(=O)N[C@H]3C(=O)N[C@H](C(=O)N[C@H](C(=O)O)c4cc(O)cc(O)c4-c4cc3ccc4O)[C@H](O)c3ccc(c(Cl)c3)Oc3cc2cc(c3O[C@@H]2O[C@H](CO)[C@@H](O)[C@H](O)[C@H]2O[C@H]2C[C@](C)(N)[C@H](O)[C@H](C)O2)Oc2ccc(cc2Cl)[C@H]1O` [vancomycin] gave an MIC of 0.25 µg/mL (≈ 0.173 µM).

Still in this assay, the particulars now being: Bacillus subtilis; B. subtilis 168, Belitsky Minimal Medium, 18-24 hrs at 37° C.; read-out: MIC.
For `O=c1[nH]cc(F)c(=O)[nH]1` [5-fluoro-uracile], the MIC stood at 0.25 µg/mL (≈ 1.92 µM). For `[N-]=[N+]=CC(=O)OC[C@H](N)C(=O)O` [azaserine], the minimal inhibitory concentration (MIC) was found to be 4 µg/mL (≈ 23.1 µM).

On to `CC[C@H]1OC(=O)[C@H](C)[C@@H](O[C@H]2C[C@@](C)(OC)[C@@H](O)[C@H](C)O2)[C@H](C)[C@@H](O[C@@H]2O[C@H](C)C[C@H](N(C)C)[C@H]2O)[C@](C)(O)C[C@@H](C)CN(C)[C@H](C)[C@@H](O)[C@]1(C)O` [azithromycin], for which the minimum inhibitory concentration (MIC) stood at 1 µg/mL (≈ 1.34 µM). Turning to `CO[C@@]1(NC(=O)Cc2cccs2)C(=O)N2C(C(=O)O)=C(COC(N)=O)CS[C@@H]21` [cefoxitin], the MIC came to 2 µg/mL (≈ 4.68 µM). For `C/C=C/C/C=C/CCC(=O)[C@H]1O[C@H]1C(N)=O` [cerulenin], the MIC stood at 16 µg/mL (≈ 71.7 µM). `O=C(N[C@H](CO)[C@H](O)c1ccc([N+](=O)[O-])cc1)C(Cl)Cl` [chloramphenicol]: the MIC turned out to be 4 µg/mL (≈ 12.4 µM). On to `CC[C@H]1OC(=O)[C@H](C)[C@@H](O[C@H]2C[C@@](C)(OC)[C@@H](O)[C@H](C)O2)[C@H](C)[C@@H](O[C@@H]2O[C@H](C)C[C@H](N(C)C)[C@H]2O)[C@](C)(OC)C[C@@H](C)C(=O)[C@H](C)[C@@H](O)[C@]1(C)O` [clarithromycin], for which the MIC worked out at 0.0625 µg/mL (≈ 0.0836 µM). For `CCC[C@@H]1C[C@@H](C(=O)N[C@@H]([C@H]2O[C@H](SC)[C@H](O)[C@@H](O)[C@H]2O)[C@H](C)Cl)N(C)C1` [clindamycin], the MIC was determined as 2 µg/mL (≈ 4.71 µM). With `COc1cccc2c1C(=O)c1c(O)c3c(c(O)c1C2=O)C[C@@](O)(C(=O)CO)C[C@@H]3O[C@H]1C[C@H](N)[C@H](O)[C@H](C)O1` [doxorubicin], the MIC was determined as 8 µg/mL (≈ 14.7 µM). `CC[C@H]1OC(=O)[C@H](C)[C@@H](O[C@H]2C[C@@](C)(OC)[C@@H](O)[C@H](C)O2)[C@H](C)[C@@H](O[C@@H]2O[C@H](C)C[C@H](N(C)C)[C@H]2O)[C@](C)(O)C[C@@H](C)C(=O)[C@H](C)[C@@H](O)[C@]1(C)O` [erythromycin]: the MIC came out at 0.5 µg/mL (≈ 0.681 µM). As to `CC(=O)O[C@H]1C[C@@]2(C)[C@@H](C[C@@H](O)[C@H]3[C@@]4(C)CC[C@@H](O)[C@@H](C)[C@@H]4CC[C@@]32C)/C1=C(\CCC=C(C)C)C(=O)O` [fusidic acid], the MIC turned out to be 0.5 µg/mL (≈ 0.968 µM). With `NC[C@H]1O[C@H](O[C@H]2[C@H](O)[C@@H](O[C@H]3O[C@H](CO)[C@@H](O)[C@H](N)[C@H]3O)[C@H](N)C[C@@H]2N)[C@H](O)[C@@H](O)[C@@H]1O` [kanamycin], the MIC is 0.5 µg/mL (≈ 1.03 µM). Regarding `CC[C@@H](C(=O)[C@@H](C)[C@@H](O)[C@H](C)CCc1ccc(C)c(O)c1C(=O)O)[C@H]1O[C@](CC)([C@H]2CC[C@](O)(CC)[C@H](C)O2)C[C@@H]1C` [lasalocid], the MIC worked out at 1 µg/mL (≈ 1.69 µM). `COc1cccc(OC)c1C(=O)N[C@@H]1C(=O)N2[C@@H]1SC(C)(C)[C@@H]2C(=O)O` [methicillin]: the MIC stood at 0.125 µg/mL (≈ 0.329 µM).

With `CC[C@@]1([C@@H]2O[C@@H]([C@H]3O[C@@](O)(CO)[C@H](C)C[C@@H]3C)C[C@@H]2C)CC[C@H]([C@]2(C)CC[C@]3(C[C@H](O)[C@@H](C)[C@@H]([C@@H](C)[C@@H](OC)[C@H](C)C(=O)O)O3)O2)O1` [monensin], the MIC amounted to 4 µg/mL (≈ 5.96 µM). Consider `CO[C@@]1(NC(=O)C(C(=O)O)c2ccc(O)cc2)C(=O)N2C(C(=O)O)=C(CSc3nnnn3C)CO[C@@H]21` (some centres unmarked) [moxalactam], for which the minimal inhibitory concentration (MIC) is 4 µg/mL (≈ 7.69 µM).

As to `C/C(=C\C(=O)OCCCCCCCCC(=O)O)C[C@@H]1OC[C@H](C[C@@H]2O[C@H]2[C@@H](C)[C@H](C)O)[C@@H](O)[C@H]1O` [mupirocin], the MIC came to 0.0625 µg/mL (≈ 0.125 µM).

As to `CCn1cc(C(=O)O)c(=O)c2ccc(C)nc21` [nalidixic acid], the MIC was 32 µg/mL (≈ 138 µM). As to `CO[C@@H]1C[C@@H](C[C@H]2CC[C@H](C)[C@H]([C@@H](C)C(=O)O)O2)O[C@]2(O[C@](C)([C@H]3CC[C@@](C)([C@@H]4O[C@@H]([C@H]5O[C@@](O)(CO)[C@H](C)C[C@@H]5C)C[C@@H]4C)O3)C[C@H]2C)[C@@H]1C` [nigericin], the MIC worked out at 1 µg/mL (≈ 1.38 µM). Regarding `O=C1CN(/N=C/c2ccc([N+](=O)[O-])o2)C(=O)N1` [nitrofurantoin], the MIC came out at 16 µg/mL (≈ 67.2 µM). As to `CO[C@@H]1[C@@H](OC(N)=O)[C@@H](O)[C@H](Oc2ccc3c(O)c(NC(=O)c4ccc(O)c(CC=C(C)C)c4)c(=O)oc3c2C)OC1(C)C` [novobiocin], the MIC was 2 µg/mL (≈ 3.26 µM). In the case of `Cc1onc(-c2ccccc2)c1C(=O)N[C@@H]1C(=O)N2[C@@H]1SC(C)(C)[C@@H]2C(=O)O` [oxacillin], the MIC is 0.5 µg/mL (≈ 1.25 µM). With `Nc1ccc2cc3ccc(N)cc3nc2c1` [proflavin], the MIC worked out at 8 µg/mL (≈ 38.2 µM). On to `COc1ccc(C[C@H](N)C(=O)N[C@H]2[C@@H](O)[C@H](n3cnc4c(N(C)C)ncnc43)O[C@@H]2CO)cc1` [puromycin], for which the MIC was 8 µg/mL (≈ 17 µM). `CO[C@H]1/C=C/O[C@@]2(C)Oc3c(C)c(O)c4c(O)c(c(/C=N/N5CCN(C)CC5)c(O)c4c3C2=O)NC(=O)/C(C)=C\C=C\[C@H](C)[C@H](O)[C@@H](C)[C@@H](O)[C@@H](C)[C@H](OC(C)=O)[C@@H]1C` [rifampicin]: the MIC is 0.25 µg/mL (≈ 0.304 µM). As to `CN[C@@H]1[C@H](O)[C@H](NC)[C@H]2O[C@@]3(O)C(=O)C[C@@H](C)O[C@H]3O[C@@H]2[C@H]1O` [spectinomycin], the MIC is 16 µg/mL (≈ 48.1 µM). As to `[H]/N=C(/N)N[C@H]1[C@H](O)[C@@H](O)[C@H](O[C@@H]2O[C@@H](C)[C@](O)(C=O)[C@H]2O[C@@H]2O[C@@H](CO)[C@H](O)[C@@H](O)[C@@H]2NC)[C@@H](N/C(N)=N\[H])[C@@H]1O` [streptomycin], the MIC is 128 µg/mL (≈ 220 µM).

For `NC[C@H]1O[C@H](O[C@H]2[C@H](O)[C@@H](O[C@H]3O[C@H](CO)[C@@H](O)[C@H](N)[C@H]3O)[C@H](N)C[C@@H]2N)[C@H](N)C[C@@H]1O` [tobramycin], the MIC came to 0.0625 µg/mL (≈ 0.134 µM).

Turning to `COc1cc(Cc2cnc(N)nc2N)cc(OC)c1OC` [trimethoprim], the MIC turned out to be 0.5 µg/mL (≈ 1.72 µM).
